From patent US8216825B2, “Aquaculture biocide methods and compositions” (priority 2010, dated 2012)
Entries after “also recorded” stand apart in the source; their conditions may differ.

Tests used:
rotifers [1] = assay: Rotifer-infested photobioreactor, methoprene with acetone (Example 3); assay type: in vivo; details: methoprene 30 mg/L or less with acetone between 1 and 27 ml/L; present-tense example
Description: Methoprene at a concentration of 30 mg/L or less is added to the algal solution in a rotifer-infested photobioreactor. Acetone at a concentration between 1 and 27 ml/L is also added as an adjuvant. At these concentrations, acetone may (while subjecting the algal crop to minimal harm) act as a surfactant, allowing methoprene to become more dissolved. […] Wait approximately 30 days before renewing the media so that methoprene can biodegrade sufficiently before disposal of water.

Brachionus sp. rotifers [2] = assay: Live rotifer count by microscopy in 30-μL samples (Example 1); assay type: in vivo; details: 13 days after inoculation
Description: One day prior to the general test period, the rotifer concentration was determined. The rotifer concentration of the bottle was estimated by counting rotifers in three trials of 30-μL samples with a Swift microscope at 1.25× magnification. Rotifer concentration was estimated again with the same procedure on the day of inoculation.
12 days after inoculation a 5-mL sample was extracted from each of the 15 jars containing rotifer solution. 24 hours after extraction, these samples were examined with microscopy. From each of the fifteen 5-mL samples, three 30-μL samples were pipetted onto glass slides and the rotifers were counted with a stereoscopic microscope at 2×-4× magnification.

Chlorella sp. [3] = assay: 12-day mason jar test, algal optical density at 680 nm, algae without rotifers (Example 1); assay type: cell-based; details: A+M: 30 mg/L methoprene, no rotifers
Description: (§1) Algae were expanded into 500 ml of 20% artificial seawater in mason jars and subjected to five treatment conditions. Five replicates were conducted for each of the conditions. The test conditions were: control (algae only), rotifers without methoprene (A+R), methoprene without rotifers (A+M) methoprene with rotifers (A+R+M), and double concentration methoprene with rotifers (A+R+2M). In the mason jars containing solutions “with rotifers”, 9 mL of media were replaced with rotifer solution. In the A+M and A+R+M groups, the solution was modified to give a methoprene concentration of 30 mg/L. In the A+R+2M group, the solution was modified to give a methoprene concentration of 62 mg/L.
(§2) During the test period, algae was kept on a 12-hour light: 12-hour dark photoperiod at 26.8° C. The pH and specific gravity of the 20% artificial seawater solution were measured to be 8.92±0.02 and 1.013 respectively.
(§3) Optical density measurements were taken on days 5, 6, and 12 after inoculation. Each jar was first agitated either by gently rocking back and forth until minimal algal residue could be seen on the bottom. Occasionally, a sterile tube or pipette was employed to scrape some residue into the solution. Once minimal algal residue remained in the jar, a 5-mL sample of solution was pipetted out with a sterile pipette. The sample's optical density was read with a spectrometer at 680 nm. Control and A+R sample readings were blanked with a solution of 10 mL modified Bristol medium per 40 mL 20% artificial seawater. A+M and A+R+M sample readings were blanked with a solution of 10 mL modified Bristol medium per 38.5 mL 20% artificial seawater and 1.5 mL methoprene-seawater solution. A+R+2M sample readings were blanked with a solution of 10 mL modified Bristol medium per 36.9 mL 20% artificial seawater and 3.1 mL methoprene-seawater solution. Optical density readings were taken in absorbance units.

Chlorella sp. [4] = assay: Biocide toxicity tests in test tubes, algal optical density at 680 nm (Example 5); assay type: cell-based; details: for mean optical density on day 12 compared with control group: 20 mg/L methoprene, 2% acetone respectively, P>0.05; for mean optical density on day 12 compared with control group / inhibition of algal growth: 2.0 mg/L resmethrin; for inhibition of algal growth: applied without rotifers, experimental concentrations 20 mg/L methoprene, 2% acetone; for mean optical density at day 12 compared with control: printed P>0.5
Description: 27 ml of Chlorella in Alga-Gro Freshwater Medium were added to 300 ml modified Bristol medium and allowed to grow without agitation for 30 hours. The 327 ml of algal solution were then expanded into a total of 700 ml modified Bristol medium and allowed to grow without agitation. After 42 hours, the 700 ml of algal solution were split up into 60 individual test tubes. Each test tube received 10 ml of algal solution, along with 1 ml of rotifer solution (or media) and 4 ml of reagent solution, for a total of 15 ml.
An initial Brachionus sp. population of about 30 individuals was cultured without agitation in one 60-ml jar for 3 days. Then, 1 ml of rotifer solution was pipetted into each of the 40 test tubes designated for rotifer toxicity assessment.
The 60 test tubes represented 12 groups, each with five replicates. The test group names and conditions are as follows (Table 4). The group “20M−R” contained algae, 20 mg/l of methoprene, and no rotifers. The group “20M+R” contained algae, 20 mg/l of methoprene, and rotifers. The group “5M+R” contained algae, 5 mg/l of methoprene, and rotifers. The group “5M+A+R” contained 5 mg/l of methoprene, 2% acetone (v/v), and rotifers. The group “2R−R” contained algae, 2.0 mg/I of resmethrin, and no rotifers. The group “2R+R” contained algae, 2.0 mg/l of resmethrin, and rotifers. The group “5R+R” contained algae, 0.5 mg/l of resmethrin, and rotifers. The group “5R+A+R” contained 0.5 mg/l of resmethrin, 2% acetone, rotifers. The group “A−R” contained algae, 2% acetone and no rotifers. The group “A+R” contained algae, 2% acetone and rotifers. The group “R” contained algae and rotifers without any extra reagents. The group “C” contained algae in media only.
Organisms were cultured and assessed for a test period of 12 days. During the test period, organisms were subjected to agitation at 60 rpm and a photoperiod of 12 hr light, 12 hr dark. The day that organisms were combined into the 60 test tubes was designated as day 0. A 1000-μl sample was removed from each tube for optical density analysis every other day, beginning on day 0. The optical densities of these samples were determined spectrometrically at 680 nm. On days 0, 6, and 12, a 250-μl sample was removed from each of the 1000-μl samples from rotifer-containing groups. Rotifers per 250-μl sample were counted with a dissecting microscope.
The optical densities of each of the 12 groups in the pesticide toxicity tests were averaged and plotted on a time plot (FIGS. 3 & 4). Standard deviation values and average algal growth rates were calculated for each group and day. T-tests were performed to determine the statistical significance of difference between relevant means. A linear regression model was used to compare the optical density averages of the “20M−R” group and the “C” control group. A linear regression of time against optical density in the control group of tubes was compared with a logarithmic regression model of time against optical density in the control flask. (FIG. 5).

[5] = background statement; cited from earlier work
humans or algae = details: background statement; cited from earlier work
rotifers [6] = details: at concentrations found in this study to be nontoxic to algae; literature findings; cited from earlier work
Brachionus sp. rotifers [7] = assay: 12-day mason jar test, algal optical density at 680 nm, algae with rotifers (Example 1); assay type: in vivo
Description: as §1, §2, §3

Chlorella sp. [8] = assay: Methoprene with acetone added to Chlorella, growth (Example 2); assay type: cell-based; details: methoprene 20 mg/L with acetone 2% v/v
Description: Methoprene at 20 mg/L with acetone at 2% v/v was added to Chlorella sp.

Brachionus plicatilis = details: Marcial et al. (2005), lower concentration of the project is 30 mg/L; cited from earlier work
rotofers = assay: Alpha-pinene/propylene glycol in algal medium, rotifer control (Example 4); assay type: in vivo; details: approx. 1:1 (w/w) alpha-pinene and propylene glycol, equal to or less than 136 mg/L; present-tense example
Description: (§4) An approximate 1:1 (w/w) solution of alpha-pinene and propylene glycol is made. Alpha-pinene is the active agent, while propylene glycol is a surfactant. This mixture is added to the algal medium at a concentration equal to or less than 136 mg/L. Daphnia magna and rotofers are controlled in the aquaculture.

Daphnia magna = assay: Alpha-pinene/propylene glycol in algal medium, Daphnia control (Example 4); assay type: in vivo; details: approx. 1:1 (w/w) alpha-pinene and propylene glycol, equal to or less than 136 mg/L; present-tense example
Description: as §4

## COC(C)(C)CCC[C@H](C)C/C=C/C(C)=C/C(=O)OC(C)C (racemic) [methoprene]
Rotifers [1]
  effect on rotifers: eliminates rotifers
Brachionus sp. rotifers [2]; A+R+2M: 62 mg/L methoprene
  live rotifers in 30-μL samples: zero
Brachionus sp. rotifers [2]; A+R+M: 30 mg/L methoprene, A+R group 8.7 per 30 μL
  live rotifers in 30-μL samples: zero
Chlorella sp. [3]; 5 days after inoculation
  Mean optical density ± one standard deviation: 0.84 ± 0.02
Chlorella sp. [3]; 6 days
  Mean optical density ± one standard deviation: 0.89 ± 0.01
Chlorella sp. [3]; 12 days
  Mean optical density ± one standard deviation: 0.93 ± 0.02
Chlorella sp. [3]; between 5 and 12 days after inoculation
  average specific growth rate of algae: 0.0065 log(AU)/day
Chlorella sp. [4]
  mean optical density on day 12 compared with control group: not significantly different
  inhibition of algal growth: Neither methoprene, resmethrin, nor acetone, when applied without rotifers, was found to inhibit algal growth
Chlorella sp. [4]; listed as Methoprene
  inhibition of algal growth: not found to inhibit algal growth
Chlorella sp. [4]; group 5M+R: 5 mg/L methoprene, rotifers
  mean optical density at day 12 compared with control: significantly lower
[5]
  degradation in sunlight: rapidly degrades in sunlight
Humans or algae
  toxicity to humans or algae: practically non-toxic
Rotifers [6]
  harm to rotifers: significantly harmful to rotifers
Brachionus sp. rotifers [7]; A+R+2M: 62 mg/L methoprene with rotifers, 5 days
  Mean optical density ± one standard deviation: 0.6 ± 0.2
Brachionus sp. rotifers [7]; A+R+2M: 62 mg/L methoprene with rotifers, 6 days
  Mean optical density ± one standard deviation: 0.7 ± 0.1
Brachionus sp. rotifers [7]; A+R+2M: 62 mg/L methoprene with rotifers, 12 days
  Mean optical density ± one standard deviation: 0.7 ± 0.2
Brachionus sp. rotifers [7]; A+R+M: 30 mg/L methoprene with rotifers, 5 days
  Mean optical density ± one standard deviation: 0.6 ± 0.2
Brachionus sp. rotifers [7]; A+R+M: 30 mg/L methoprene with rotifers, 6 days
  Mean optical density ± one standard deviation: 0.7 ± 0.2
Brachionus sp. rotifers [7]; A+R+M: 30 mg/L methoprene with rotifers, 12 days
  Mean optical density ± one standard deviation: 0.7 ± 0.2
Brachionus sp. rotifers [7]; A+R+M: 30 mg/L methoprene with rotifers, between 5 and 12 days after inoculation
  average specific growth rate of algae: 0.0078 log(AU)/day
Brachionus sp. rotifers [7]; double methoprene concentration with rotifers (A+R+2M, 62 mg/L), 12 days
  average optical density: 0.71 AU
Brachionus sp. rotifers [7]; methoprene with rotifers (A+R+M, 30 mg/L), 12 days, rotifers only 0.47 AU, control 0.96 AU
  average optical density: 0.69 AU
Chlorella sp. [8]
  growth reduction of Chlorella sp.: No growth reduction
Brachionus plicatilis
  24-hr LC50: lower methoprene concentration utilized in this project

## CC(C)=O [acetone]
Chlorella sp. [4]
  mean optical density on day 12 compared with control group: not significantly different
  inhibition of algal growth: Neither methoprene, resmethrin, nor acetone, when applied without rotifers, was found to inhibit algal growth; also recorded: not found to inhibit algal growth

## CC1=CCC2CC1C2(C)C (stereo not drawn) [alpha-pinene]
rotofers
  control of rotifers in the aquaculture: controlled
Daphnia magna
  control of Daphnia magna in the aquaculture: controlled

## CC(C)=CC1C(C(=O)OCc2coc(Cc3ccccc3)c2)C1(C)C (stereo not drawn) [resmethrin]
Chlorella sp. [4]
  mean optical density on day 12 compared with control group: not significantly different
  inhibition of algal growth: Neither methoprene, resmethrin, nor acetone, when applied without rotifers, was found to inhibit algal growth; also recorded: not found to inhibit algal growth
Chlorella sp. [4]; group 2R−R as printed: 2.0 mg/L resmethrin, no rotifers
  mean optical density at day 12 compared with control: significantly lower
Rotifers [6]
  harm to rotifers: significantly harmful to rotifers
